Strand notation (5' to 3'): a small letter for the sugar, then the base; units joined by * are phosphorothioate-linked, units joined directly phosphodiester-linked; [ ] holds rarer units or linkages, { } end groups; capitals alone tell only the bases. k = constrained ethyl (cEt); [5mC] = 5-methylcytosine; d = 2'-deoxy (DNA)
Assays:
Yap1 mRNA [1] = assay: Dose-dependent inhibition of human Yap1 in A-431 cells (Example 7, 10,000 cells per well, RTS36584); format: cell-based; conditions: free uptake; for Yap1 mRNA, % UTC: A-431 cells 10,000 cells per well, 48 hours
Summary of the method: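 A-431 cells at 10,000 per well received modified oligonucleotides by free uptake at several doses. After about 48 hours, Yap1 mRNA was quantified with primer-probe set RTS36584, normalized to RIBOGREEN total RNA and expressed as % untreated control. IC50 came from linear regression on a log/linear plot.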

[2] = Tolerability in Balb/c mice, plasma chemistry markers (Example 12); format: in vivo; conditions: 50 mg/kg subcutaneously twice a week for four weeks
Experimental: Balb/c mice were treated with modified oligonucleotides selected from studies described above and evaluated for changes in the levels of various plasma chemistry markers.
(§1) Groups of male Balb/c mice at 6-7 weeks of age (obtained from Taconic) were injected subcutaneously twice a week for four weeks (for a total of 8 treatments) with 50 mg/kg of modified oligonucleotides. One group of male Balb/c mice was injected with PBS. Mice were euthanized on day 26 post start of treatment (24 hours following the final administration).

[3] = Tolerability in Balb/c mice, body and organ weights (Example 12); format: in vivo; conditions: male Balb/c mice, 50 mg/kg s.c. twice a week for four weeks (8 treatments), end of study (day 26)
Experimental: as §1
Body weights of Balb/c mice were measured at the end of the study, and the average body weight for each group is presented in the table below. Modified oligonucleotides that caused any changes in organ weights outside the expected range for modified oligonucleotides were excluded from further studies.

Yap1 mRNA [4] = assay: Antisense inhibition of human Yap1 in A-431 cells by cEt gapmers, single dose (Example 1, RTS4814); format: cell-based
Summary of the method: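 Free uptake of 2,000 nM 3-10-3 cEt gapmer (16-mer, full phosphorothioate, 5-methylcytosines) in A-431 cells for ~48 h. Yap1 mRNA quantified by qRT-PCR with set RTS4814, normalized to total RNA (RiboGreen), and expressed as % of untreated control; asterisked values target the amplicon region.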

Yap1 mRNA [5] = assay: Antisense inhibition of human Yap1 in A-431 cells by cEt gapmers, single dose (Example 3, RTS36584); format: cell-based; conditions: A-431 cells, 5,000 cells per well
Summary of the method: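 A-431 cells were treated by free uptake with 2,000 nM modified oligonucleotide (3-10-3 cEt gapmers, full phosphorothioate, 5-methylcytosines) for about 48 hours. Yap1 mRNA was quantified by real-time RT-PCR, normalized to RiboGreen total RNA, and expressed as % of untreated control; asterisked values mark oligonucleotides targeting the amplicon region.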

Yap1 mRNA [6] = assay: Antisense inhibition of human Yap1 in SNU-449 cells by modified oligonucleotides, single dose (Example 5, RTS36584); format: cell-based
Summary of the method: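 SNU-449 cells (10,000/well) took up 2,000 nM oligonucleotide by free uptake for about 48 h. Yap1 mRNA was measured by qRT-PCR with primer probe set RTS36584 and normalised to RIBOGREEN total RNA. Values are % of untreated control; asterisked oligos target the amplicon region.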

[7] = Table 2, A-431 cells, free uptake, 2,000 nM, approximately 48 hours, RTS4814, Yap1 mRNA relative to untreated control cells
[8] = Table 8, free uptake, 2,000 nM, approximately 48 hours, RTS36584, normalized to RIBOGREEN, Yap1 mRNA relative to untreated control cells
[9] = A-431 cells, 5,000 cells per well, free uptake, 2,000 nM modified oligonucleotide, approx. 48 hours, RTS4814, normalized to RIBOGREEN, Table 3

Substance: 958509 (kA*kT*kG*dT*dT*dA*dT*dG*dT*dT*dT*dG*dG*kG*kT*kG; antisense) [compound 958509]
- Yap1 mRNA, % UTC (Yap1 mRNA [1]; Table 61, 15.6 nM): 66 % UTC
- Yap1 mRNA, % UTC (Yap1 mRNA [1]; Table 61, 62.5 nM): 37 % UTC
- Yap1 mRNA, % UTC (Yap1 mRNA [1]; Table 61, 4000.00 nM): 7 % UTC
- IC50 (Yap1 mRNA [1]; Table 61, A-431 cells 10,000 cells per well): 30 nM
- ALT [2]: 1483 U/L
- AST [2]: 1627 U/L
- BUN [2]: 26 mg/dL
- TBIL [2]: 0.31 mg/dL
- Kidney weight [3]: 0.27 g
- Liver weight [3]: 1.50 g
- Spleen weight [3]: 0.13 g
- body weight [3]: 20 g

Substance: 958603 (kT*kG*kG*dT*dA*dT*dG*dA*dA*dT*dT*d[5mC]*dT*kG*kA*kA; antisense) [compound 958603]
- Yap1 mRNA, % UTC (Yap1 mRNA [1]; Table 59, 15.6 nM): 70 % UTC
- Yap1 mRNA, % UTC (Yap1 mRNA [1]; Table 59, 62.5 nM): 27 % UTC
- Yap1 mRNA, % UTC (Yap1 mRNA [1]; Table 59, 4000.00 nM): 4 % UTC
- IC50 (Yap1 mRNA [1]; Table 59, A-431 cells 10,000 cells per well): 30 nM
- ALT [2]: 1103 U/L
- AST [2]: 927 U/L
- BUN [2]: 27 mg/dL
- TBIL [2]: 0.35 mg/dL
- Kidney weight [3]: 0.36 g
- Liver weight [3]: 1.80 g
- Spleen weight [3]: 0.20 g
- body weight [3]: 21 g

Substance: 958736 (kG*kT*kG*dA*dT*dA*dT*dG*dG*dA*dT*dT*d[5mC]*kT*kG*kT; antisense) [compound 958736]
- Yap1 mRNA, % UTC (Yap1 mRNA [1]; Table 56, 15.6 nM): 83 % UTC
- Yap1 mRNA, % UTC (Yap1 mRNA [1]; Table 56, 62.5 nM): 38 % UTC
- Yap1 mRNA, % UTC (Yap1 mRNA [1]; Table 56, 4000.00 nM): 7 % UTC
- IC50 (Yap1 mRNA [1]; Table 56, A-431 cells 10,000 cells per well): 60 nM
- ALT [2]: 2439 U/L
- AST [2]: 1450 U/L
- BUN [2]: 20 mg/dL
- TBIL [2]: 0.31 mg/dL
- Kidney weight [3]: 0.39 g
- Liver weight [3]: 1.95 g
- Spleen weight [3]: 0.18 g
- body weight [3]: 24 g

Substance: 715491 (antisense kA*kA*k[5mC]*d[5mC]*dA*dA*d[5mC]*dT*dA*dT*dT*dA*d[5mC]*kT*kT*k[5mC]) [Compound 715491]
- YAP1 (% UTC) (Yap1 mRNA [4]; [7]): 71 % UTC
- YAP1 (% UTC) (Yap1 mRNA [5]; [8]): 8 % UTC

Substance: 715487 (antisense kA*kT*kT*dA*d[5mC]*dT*dT*d[5mC]*dA*dT*dA*dG*d[5mC]*kT*kT*kA) [Compound 715487]
- YAP1 (% UTC) (Yap1 mRNA [4]; Table 1, A-431 cells, free uptake, 2,000 nM, approximately 48 hours, RTS4814, Yap1 mRNA relative to untreated control cells): 22 % UTC
- YAP1 (% UTC) (Yap1 mRNA [6]; Table 39, SNU-449 cells, 10,000 cells per well, free uptake, 2,000 nM oligonucleotide, approx. 48 hours, RTS36584, normalized to RIBOGREEN, Yap1 mRNA relative to untreated control): 12 % UTC
- YAP1 (% UTC) (Yap1 mRNA [6]; Table 40 (separate experiment), SNU-449 cells, 10,000 cells per well, free uptake, 2,000 nM oligonucleotide, approx. 48 hours, RTS36584, normalized to RIBOGREEN, Yap1 mRNA relative to untreated control): 28 % UTC
- YAP1 (% UTC) (Yap1 mRNA [6]; Table 41, SNU-449 cells, 10,000 cells per well, free uptake, 2,000 nM modified oligonucleotide, approximately 48 hours, RTS36584, normalized to RIBOGREEN, Yap1 mRNA relative to untreated control cells): 28 % UTC
- YAP1 (% UTC) (Yap1 mRNA [6]; Table 42 (separate experiment), SNU-449 cells, 10,000 cells per well, free uptake, 2,000 nM modified oligonucleotide, approximately 48 hours, RTS36584, normalized to RIBOGREEN, Yap1 mRNA relative to untreated control cells): 29 % UTC
- YAP1 (% UTC) (Yap1 mRNA [6]; Table 43 experiment, SNU-449 cells, 10,000 cells per well, free uptake, 2,000 nM, approximately 48 hours, RTS36584, Yap1 mRNA normalized to RIBOGREEN, relative to untreated control cells): 25 % UTC
- YAP1 (% UTC) (Yap1 mRNA [6]; Table 44 experiment, SNU-449 cells, 10,000 cells per well, free uptake, 2,000 nM, approximately 48 hours, RTS36584, Yap1 mRNA normalized to RIBOGREEN, relative to untreated control cells): 18 % UTC
- YAP1 (% UTC) (Yap1 mRNA [6]; Table 45, Yap1 mRNA as percent of untreated control, SNU-449 cells, single dose): 28 % UTC
- YAP1 (% UT) (Yap1 mRNA [6]; Table 46, Yap1 mRNA as percent of untreated control, SNU-449 cells, single dose): 25 % UT
- YAP1 (% UT) (Yap1 mRNA [6]; Table 48, Yap1 mRNA level relative to untreated control, modified oligonucleotides targeting SEQ ID NO.: 1 and 2): 34 % UT
- YAP1 (% UT) (Yap1 mRNA [6]; Table 49, Yap1 mRNA level relative to untreated control, modified oligonucleotides targeting SEQ ID NO.: 1 and 2): 30 % UT
- YAP1 (% UT) (Yap1 mRNA [6]; Table 50, Yap1 mRNA remaining as percent of untreated control (UT), SNU-449 cells, single dose): 31 % UT
- YAP1 (% UT) (Yap1 mRNA [6]; Table 51, Yap1 mRNA remaining as percent of untreated control (UT), SNU-449 cells, single dose): 24 % UT
- YAP1 (% UT) (Yap1 mRNA [6]; Table 52, Yap1 mRNA, modified oligonucleotides targeting SEQ ID NO: 1 and 2): 29 % UT
- YAP1 (% UT) (Yap1 mRNA [6]; Yap1 mRNA, percent of untreated control, modified oligonucleotides targeting SEQ ID NO: 1 and 2, Table 47): 39 % UT

Substance: 715483 (antisense k[5mC]*kT*k[5mC]*dT*dT*dT*dG*dG*dA*dA*dA*d[5mC]*d[5mC]*kA*kT*kT) [Compound 715483]
- YAP1 (% UTC) (Yap1 mRNA [4]; [9]): 15 % UTC
- YAP1 (% UTC) (Yap1 mRNA [5]; [8]): 2 % UTC
- YAP1 (% UTC) (Yap1 mRNA [5]; Table 9, free uptake, 2,000 nM, approximately 48 hours, RTS36584, normalized to RIBOGREEN, Yap1 mRNA relative to untreated control cells): 1 % UTC
- YAP1 (% UTC) (Yap1 mRNA [5]; Table 10, free uptake, 2,000 nM oligonucleotide, approx. 48 hours, primer probe set RTS36584, Yap1 mRNA normalized to RIBOGREEN, percent of untreated control): 2 % UTC
- YAP1 (% UTC) (Yap1 mRNA [5]; Table 11, free uptake, 2,000 nM oligonucleotide, approx. 48 hours, primer probe set RTS36584, Yap1 mRNA normalized to RIBOGREEN, percent of untreated control): 1 % UTC
- YAP1 (% UTC) (Yap1 mRNA [5]; Table 12, free uptake, 2,000 nM modified oligonucleotide, approx. 48 hours, RTS36584, normalized to RIBOGREEN, Yap1 mRNA relative to untreated control cells): 1 % UTC
- YAP1 (% UTC) (Yap1 mRNA [5]; Table 13, free uptake, 2,000 nM modified oligonucleotide, approx. 48 hours, RTS36584, normalized to RIBOGREEN, Yap1 mRNA relative to untreated control cells): 1 % UTC

Substance: 715623 (antisense k[5mC]*k[5mC]*kT*dA*dA*dG*dA*dG*dT*dA*dA*dA*dA*kA*kA*kT) [Compound 715623]
- YAP1 (% UTC) (Yap1 mRNA [4]; [7]): 113 % UTC

Substance: 715459 (antisense k[5mC]*kT*k[5mC]*dG*dA*dG*dA*dG*dT*dG*dA*dT*dA*kG*kG*kT) [Compound 715459]
- YAP1 (% UTC) (Yap1 mRNA [4]; [9]): 93 % UTC
